# Where a name gives a salt, the structure may show the parent alone.
# Key:
# [1] = target: T1, factor VIIa (Homo sapiens, UniProt P08709); test: Inhibition of factor VIIa; format: biochemical
# T1 sequence (P08709 213-466 limits assumed): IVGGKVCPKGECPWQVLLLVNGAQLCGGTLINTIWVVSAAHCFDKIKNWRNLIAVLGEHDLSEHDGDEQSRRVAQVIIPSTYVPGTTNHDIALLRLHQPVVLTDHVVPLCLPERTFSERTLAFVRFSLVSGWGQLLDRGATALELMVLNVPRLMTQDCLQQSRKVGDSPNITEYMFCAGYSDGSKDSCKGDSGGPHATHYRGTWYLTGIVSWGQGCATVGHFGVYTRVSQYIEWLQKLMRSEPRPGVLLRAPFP
# T1 sequence (P08709 61-212 partner limits assumed): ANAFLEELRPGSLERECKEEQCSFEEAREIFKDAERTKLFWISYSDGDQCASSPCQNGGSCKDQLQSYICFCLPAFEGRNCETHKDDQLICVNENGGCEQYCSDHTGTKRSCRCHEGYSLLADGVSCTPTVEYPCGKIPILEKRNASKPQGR
# Excerpt: Coagulation factor VIIa initiates the extrinsic part of the coagulation cascade after binding to tissue factor and contributes to the activation of factor X to give factor Xa. Inhibition of factor VIIa thus prevents the formation of factor Xa and thus subsequent thrombin formation. The inhibition of factor VIIa by the compounds according to the invention and the measurement of the anticoagulant and antithrombotic activity can be determined by conventional in-vitro or in-vivo methods. A conventional method for the measurement of the inhibition of factor VIIa is described, for example, by H. F. Ronning et al. in Thrombosis Research 1996, 84, 73-81.
# [2] = target: factor Xa (Homo sapiens, UniProt P00742); test: Inhibition of factor Xa; format: biochemical
# Excerpt: The inhibition of factor Xa by the compounds according to the invention and the measurement of the anticoagulant and antithrombotic activity can be determined by conventional in-vitro or in-vivo methods. A suitable method is described, for example, by J. Hauptmann et al. in Thrombosis and Haemostasis 1990, 63, 220-223.
# The inhibition of factor Xa can be measured, for example, by the method of T. Hara et al. in Thromb. Haemostas. 1994, 71, 314-319.
# factor Xa, sequence (P00742 235-488 limits assumed): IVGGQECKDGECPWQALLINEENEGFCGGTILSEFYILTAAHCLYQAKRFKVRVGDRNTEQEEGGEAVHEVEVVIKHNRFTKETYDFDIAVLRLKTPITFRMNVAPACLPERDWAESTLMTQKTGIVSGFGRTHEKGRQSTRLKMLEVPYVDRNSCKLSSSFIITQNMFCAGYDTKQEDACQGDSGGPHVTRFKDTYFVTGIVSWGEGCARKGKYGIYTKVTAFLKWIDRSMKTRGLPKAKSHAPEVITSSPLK
# factor Xa, sequence (P00742 41-179 partner limits assumed): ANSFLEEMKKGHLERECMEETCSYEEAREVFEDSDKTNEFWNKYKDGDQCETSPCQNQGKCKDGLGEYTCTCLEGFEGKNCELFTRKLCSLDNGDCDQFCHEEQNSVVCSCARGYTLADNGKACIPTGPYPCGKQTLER
IC50 [1] [µM],IC50 [2] [µM],Structure (SMILES)
0.55,0.14,"CC(C)(C)NS(=O)(=O)c1ccccc1-c1ccc(NC(C(=O)Nc2cccc(C(=N)N)c2)c2ccccc2)cc1 (stereo not drawn) [Example 5.5, N-(3-amidinophenyl)-2-(2′-tert-butylaminosulfonylbiphenyl-4-amino)-2-phenylacetamide]"
0.013,0.02,"N=C(N)c1cccc(NC(=O)C(Nc2ccc(-c3ccccc3S(N)(=O)=O)cc2)c2ccccc2)c1 (stereo not drawn) [Example 5.6, N-(3-amidinophenyl)-2-(2′-aminosulfonylbiphenyl-4-amino)-2-phenylacetamide, trifluoroacetate]"

Structure (SMILES),IC50 [1] [µM],IC50 [2] [µM]
"CS(=O)(=O)c1ccccc1-c1ccc(OC(C(=O)Nc2cccc(C(=N)N)c2)c2ccccc2)cc1 (stereo not drawn) [Example 1, N-(3-amidinophenyl)-2-(2′-methanesulfonylbiphenyl-4-oxyl)-2-phenylacetamide]",0.046,0.11

# Source: US20040092517A1, “Phenyl derivatives and their use in the treatment of thromboembolic disorders or tumours” (priority 2001, published 2004)
